Where two headings read alike, the source gives them in different places.

Holding throughout (type): cell-based
The subject of data set [1] is colon cancer cell line HCT 116. Description: Growth profile / viability of HCT116 colon cancer cells, XTT test. The settings on record: Homo sapiens, HCT-116, 96 h, Control DMSO = 100%, read-out: percentage of viable cells, HCT116. The essentials: (§1)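 Cells were seeded and grown untreated overnight, then exposed to compounds at a final 5 μM (0.4% v/v DMSO). Untreated and 0.4% DMSO-only cells were the controls. Percent viable cells was measured by XTT 96 h after compound addition.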
Background: Formazan colour is commonly taken as a measure of viable cells.

Data set [2] concerns colon cancer cell line HT29. Description: Growth profile / viability of HT29 colon cancer cells, XTT test. The note with it: Homo sapiens, HT-29, 96 h, Control DMSO = 100%, read-out: percentage of viable cells, HT29. A digest of the protocol:
as §1

For data set [3], the system named is colon cancer cell line RKO. Description: Growth profile / viability of RKO colon cancer cells, XTT test. The note with it: 96 h, Control DMSO = 100%, read-out: percentage of viable cells, RKO. Here is the method: The effect of the compounds Z522-XXX on the growth profile of cancer cells which express Fer was tested. The cells that were tested were: the colon cancer cell lines HT29 and HCT 116, RKO. The effect of each of the compounds on FS cells, a non malingnant fibroblastic cell line, was also studied.
Generally, cells were seeded in 96 wells microplates and were left to grow untreated overnight. Each of the compounds was dissolved in DMSO and was then added to each well in a final concentration of 5 μM. The concentration of DMSO in each well was 0.4% v/v. Untreated cells and cells subjected to 0.4% DMSO alone, served as controls. The percentage of viable cells in each well was determined 96 hours after compounds addition, using the XTT test (Berridge, M. V. et al, 2005).

Data set [4] can be described thus: Viability of FS non malignant fibroblastic cells, XTT test. The note with it: FS cells (non-malignant fibroblastic cell line), Control DMSO = 100%, read-out: percentage of viable cells, FS. The essentials: as §1

Regarding `Cc1c(-c2ccc(N(C)CCO)cc2)nc2sc(N3CCC(C(=O)N4CCN(C)CC4)CC3)nn12` [Compound Z522-0197, 2-{methyl[4-(5-methyl-2-{4-[(4-methylpiperazin-1-yl)carbonyl]-piperidin-1-yl}-imidazo[2,1-b]-[1,3,4]thiadiazol-6-yl)phenyl]-amino}ethanol], the viability at 5 µM turned out to be 95% in data set [1] (first HCT116 column); 108% in data set [1] (second HCT116 column); 102% in data set [2] (first HT29 column); 110% in data set [2] (second HT29 column); 111% in data set [3] (first RKO column); 117% in data set [3] (second RKO column). In addition, the viability at 96 h, 5 µM in data set [4] (first FS column) was 113%; in data set [4] (second FS column) it was 104%.
In the case of `O=C(C1CCN(c2nn3cc(-c4ccc(Cl)cc4)nc3s2)CC1)N1CCN(c2ccccn2)CC1` [Compound Z522-0200, 6-(4-chlorophenyl)-2-{4-[(4-pyridin-2-ylpiperazin-1-yl)carbonyl]piperidin-1-yl}imidazo[2,1-b][1,3,4]thiadiazole], the viability at 5 µM amounted to 94% in data set [1] (first HCT116 column); 88% in data set [1] (second HCT116 column); 92% in data set [2] (first HT29 column); 98% in data set [2] (second HT29 column); 81% in data set [3] (first RKO column); 78% in data set [3] (second RKO column). Moreover, the figures for the viability at 96 h, 5 µM in data set [4] (first FS column) and in data set [4] (second FS column) were 95% and 103%, respectively.
For `CN(CCc1ccccn1)C(=O)C1CCN(c2nn3cc(-c4ccc(Cl)cc4)nc3s2)CC1` [Compound Z522-0203, 1-[6-(4-chlorophenyl)imidazo[2,1-b][1,3,4]thiadiazol-2-yl]-N-methyl-N-(2-pyridin-2-ylethyl) piperidine-4-carboxamide], the viability at 5 µM in data set [1] (first HCT116 column) was determined as 75%; in data set [1] (second HCT116 column), 75%; in data set [2] (first HT29 column) it was 74%; in data set [2] (second HT29 column) it was 88%; in data set [3] (first RKO column), 48%; in data set [3] (second RKO column) it was 48%. Further, the results for the viability at 96 h, 5 µM in data set [4] (first FS column) and in data set [4] (second FS column) were 90% and 94%, respectively.
Take `O=C(C1CCN(c2nn3cc(-c4ccc(Cl)cc4)nc3s2)CC1)N1CCN(c2ncccn2)CC1` [Compound Z522-0204, 6-(4-chlorophenyl)-2-{4-[(4-pyrimidin-2-ylpiperazin-1-yl)carbonyl]piperidin-1-yl}imidazo[2,1-b][1,3,4]thiadiazole]: the viability at 5 µM was 97% in data set [1] (first HCT116 column); 110% in data set [1] (second HCT116 column); 105% in data set [2] (first HT29 column); 97% in data set [2] (second HT29 column); 92% in data set [3] (first RKO column); 76% in data set [3] (second RKO column). Moreover, the viability at 96 h, 5 µM in data set [4] (first FS column) amounted to 96%; in data set [4] (second FS column), 93%.
Regarding `CN(CCc1ccncc1)C(=O)C1CCN(c2nn3cc(-c4ccc(Cl)cc4)nc3s2)CC1` [Compound Z522-0205, 1-[6-(4-chlorophenyl)imidazo[2,1-b][1,3,4]thiadiazol-2-yl]-N-methyl-N-(2-pyridin-4-ylethyl) piperidine-4-carboxamide], the viability at 5 µM is 78% in data set [1] (first HCT116 column); 71% in data set [1] (second HCT116 column); 88% in data set [2] (first HT29 column); 85% in data set [2] (second HT29 column); 52% in data set [3] (first RKO column); 62% in data set [3] (second RKO column). Further, the viability at 96 h, 5 µM in data set [4] (first FS column) came out at 88%; in data set [4] (second FS column), 111%.
Regarding `Cc1ccc(C)n1CCN1CCN(C(=O)C2CCN(c3nn4cc(-c5ccc(Cl)cc5)nc4s3)CC2)CC1` [Compound Z522-0209, 6-(4-chlorophenyl)-2-[4-({4-[2-(2,5-dimethyl-1H-pyrrol-1-yl)ethyl]piperazin-1-yl}carbonyl)piperidin-1-yl]imidazo[2,1-b][1,3,4]thiadiazole], the viability at 5 µM in data set [1] (first HCT116 column) was determined as 71%; in data set [1] (second HCT116 column) it was 59%; in data set [2] (first HT29 column), 25%; in data set [2] (second HT29 column) it was 30%; in data set [3] (first RKO column), 52%; in data set [3] (second RKO column) it was 55%. The viability at 96 h, 5 µM in data set [4] (first FS column) was found to be 89%; in data set [4] (second FS column) it was 96%.
With `O=C(C1CCN(c2nn3cc(-c4ccc(Cl)cc4)nc3s2)CC1)N1CCCCC1CN1CCOCC1` (stereo not shown) [Compound Z522-0213, 6-(4-chlorophenyl)-2-(4-{[2-(morpholin-4-ylmethyl)piperidin-1-yl]carbonyl}piperidin-1-yl)imidazo[2,1-b][1,3,4] thiadiazole], the viability at 5 µM in data set [1] (first HCT116 column) turned out to be 84%; in data set [1] (second HCT116 column) it was 88%; in data set [2] (first HT29 column) it was 87%; in data set [2] (second HT29 column), 99%; in data set [3] (first RKO column), 18%; in data set [3] (second RKO column), 13%. For the same compound, the viability at 96 h, 5 µM in data set [4] (first FS column) amounted to 87%; in data set [4] (second FS column), 98%.
`O=C(C1CCN(c2nn3cc(-c4ccc(Cl)cc4)nc3s2)CC1)N1CCCC(CN2CCOCC2)C1` (stereo not shown) [Compound Z522-0214, 6-(4-chlorophenyl)-2-(4-{[3-(morpholin-4-ylmethyl)piperidin-1-yl]carbonyl}piperidin-1-yl)imidazo[2,1-b][1,3,4]thiadiazole]: the viability at 5 µM in data set [1] (first HCT116 column) came out at 70%; in data set [1] (second HCT116 column), 71%; in data set [2] (first HT29 column), 53%; in data set [2] (second HT29 column) it was 57%; in data set [3] (first RKO column), 24%; in data set [3] (second RKO column), 23%. Further, the viability at 96 h, 5 µM in data set [4] (first FS column) was found to be 104%; in data set [4] (second FS column) it was 90%.
For the compound `CN1CCN(C(=O)CN2CCN(C(=O)C3CCN(c4nn5cc(-c6ccc(Cl)cc6)nc5s4)CC3)CC2)CC1` [Compound Z522-0215, 6-(4-chlorophenyl)-2-[4-({4-[2-(4-methylpiperazin-1-yl)-2-oxoethyl]piperazin-1-yl}carbonyl)piperidin-1-yl]imidazo[2,1-b][1,3,4]thiadiazole], the viability at 5 µM was 63% in data set [1] (first HCT116 column); 58% in data set [1] (second HCT116 column); 14% in data set [2] (first HT29 column); 11% in data set [2] (second HT29 column); 6% in data set [3] (first RKO column); 10% in data set [3] (second RKO column). The viability at 96 h, 5 µM in data set [4] (first FS column) was found to be 85%; in data set [4] (second FS column), 109%.
As for `CN(C)CCNC(=O)CN(C)C(=O)C1CCN(c2nn3cc(-c4ccc(Cl)cc4)nc3s2)CC1` [Compound Z522-0216, 1-[6-(4-chlorophenyl)imidazo[2,1-b][1,3,4]thiadiazol-2-yl]-N^4-(2-[2-(dimethylamino)ethyl]amino-2-oxoethyl)-N^4-methyl-4-piperidinecarboxamide], the viability at 5 µM in data set [1] (first HCT116 column) worked out at 68%; in data set [1] (second HCT116 column), 86%; in data set [2] (first HT29 column) it was 10%; in data set [2] (second HT29 column) it was 11%; in data set [3] (first RKO column), 0%; in data set [3] (second RKO column), 2%. Also, the viability at 96 h, 5 µM came out at 86% in data set [4] (first FS column) and 93% in data set [4] (second FS column).
`O=C(C1CCN(c2nn3cc(-c4ccc(Cl)cc4)nc3s2)CC1)N1CCCN(c2ncccn2)CC1` [Compound Z522-0219, 6-(4-chlorophenyl)-2-{4-[(4-pyrimidin-2-yl-1,4-diazepan-1-yl)carbonyl]piperidin-1-yl}imidazo[2,1-b][1,3,4]thiadiazole]: the viability at 5 µM was found to be 75% in data set [1] (first HCT116 column); 67% in data set [1] (second HCT116 column); 91% in data set [2] (first HT29 column); 95% in data set [2] (second HT29 column); 48% in data set [3] (first RKO column); 45% in data set [3] (second RKO column). The viability at 96 h, 5 µM in data set [4] (first FS column) was 89%; in data set [4] (second FS column), 94%.

The values are drawn from US20180186815A1, “PHARMACEUTICAL COMPOSITIONS, METHODS FOR THEIR PREPARATION AND THEIR USE IN THE TREATMENT OF CANCER” (Urifer Ltd., priority 2016, published 2018).
